Assay results: patent US12435044B2, “Pyridazinone herbicides and pyridazinone intermediates used to prepare a herbicide” (FMC Corporation, priority 2018, dated 2025)

Legend:
Type in all cases: in vivo
[1] = tested on: waterhemp_RES1, (ALS & Triazine resistant common waterhemp, Amaranthus rudis); assay: Test E postemergence greenhouse test
Description: (§1) Seeds of plant species selected from corn (Zea mays), soybean (Glycine max), velvetleaf (Abutilon theophrasti), lambsquarters (Chenopodium album), poinsettia, wild (Euphorbia heterophylla), pigweed, palmer (Amaranthus palmeri), waterhemp (common waterhemp, Amaranthus rudis), surinam grass (Brachiaria decumbens), crabgrass, large (Digitaria sanguinalis), crabgrass, Brazil (Digitaria horizontalis), panicum, fall (Panicum dichotomiflorum), foxtail, giant (Setaria faberii), foxtail, green (Setaria viridis), goosegrass (Eleusine indica), johnsongrass (Sorghum halepense), ragweed (common ragweed, Ambrosia elatior), barnyardgrass (Echinochloa crus-galli), sandbur (southern sandbur, Cenchrus echinatus), arrowleaf sida (Sida rhombifolia), ryegrass, Italian (Lolium multiflorum), dayflower, VA (Virginia (VA) dayflower, Commelina virginica), field bindweed (Convolvulus arvensis), morningglory (Ipomoea coccinea), horseweed (Conyza canadensis), kochia (Kochia scoparia), nutsedge, yellow (Cyperus esculentus) and hairy beggarticks (Bidenspilosa), were planted into a silt loam soil and treated preemergence with test chemicals formulated in a non-phytotoxic solvent mixture which included a surfactant.
(§2) At the same time, plants selected from these crop and weed species and also waterhemp_RES1, (ALS & Triazine resistant common waterhemp, Amaranthus rudis), and waterhemp_RES2, (ALS & HPPD resistant common waterhemp, Amaranthus rudis) were planted in pots containing Redi-Earth® planting medium (Scotts Company, 14111 Scottslawn Road, Marysville, Ohio 43041) comprising spaghnum peat moss, vermiculite, wetting agent and starter nutrients were treated with postemergence applications of test chemicals formulated in the same manner. Plants ranged in height from 2 to 18 cm for postemergence treatments (1- to 4-leaf stage). Treated plants and controls were maintained in a greenhouse for 14 to 21 d, after which time all species were compared to controls and visually evaluated. Plant response ratings, summarized in Table E, are based on a scale of 0 to 100 where 0 is no effect and 100 is complete control. A dash (-) response means no test result.

[2] = tested on: waterhemp_RES2, (ALS & HPPD resistant common waterhemp, Amaranthus rudis); assay: Test E postemergence greenhouse test
Description: as §1, §2

[3] = tested on: corn (ZEAMD; Zea mays, cv. ‘Pioneer 1184’); assay: Test M postemergence, mixtures of Cpd. No. 20 with isoxadifen-ethyl, cloquintocet-mexyl or Mefenpyr-diethyl; details: approx. 14 d
Description: (§3) This test evaluated the effect of mixtures of Cpd. No. 20 with isoxadifen-ethyl, or cloquintocet-mexyl, or Mefenpyr-diethyl on several plant species. Seeds of plant species selected from corn (ZEAMD; Zea mays, cv. ‘Pioneer 1184’), soybean (GLXMA; Glycine max, cv. Pioneer 35T58), winter wheat (TRZAW; Triticum aetivum, cv. Arezzo), winter barley (HORVW; Hordeum vulgare, cv. Boone), rice (ORYSS; Oryza sativa, cv. M202), and giant foxtail (SETFA; Setaria faberi) were planted in pots containing Redi-Earth® planting medium (Scotts Company, 14111 Scottslawn Road, Marysville, Ohio 43041) comprising spaghnum peat moss, vermiculite, wetting agent and starter nutrients and treated postemergence using test chemicals formulated in a non-phytotoxic solvent mixture which included a surfactant. Plants ranged in height from 7 to 10 cm and were in the one- to two-leaf stage for the postemergence treatment. Treated plants and untreated controls were maintained in a greenhouse for approximately 14 d, after which time all treated plants were compared to untreated controls and visually evaluated for injury. Plant response ratings, summarized in Tables M1 to M3, are based on a 0 to 100 scale where 0 is no effect and 100 is complete control. A dash (-) response means no test result. Test results are presented as a mean of 3 reps.

[4] = tested on: giant foxtail (SETFA; Setaria faberi); assay: as above; details: approx. 14 d
Description: as §3

[5] = tested on: rice (ORYSS; Oryza sativa, cv. M202); assay: as above; details: approx. 14 d
Description: as §3

[6] = tested on: soybean (GLXMA; Glycine max, cv. Pioneer 35T58); assay: as above; details: approx. 14 d
Description: as §3

[7] = tested on: winter barley (HORVW; Hordeum vulgare, cv. Boone); assay: as above; details: approx. 14 d
Description: as §3

[8] = tested on: winter wheat (TRZAW; Triticum aetivum, cv. Arezzo); assay: as above; details: approx. 14 d
Description: as §3

[9] = Cpd. No. 20 alone 125 g a.i./ha
[10] = Cpd. No. 20 alone 250 g a.i./ha
[11] = Cpd. No. 20 alone 375 g a.i./ha

Cc1ccc2ccc(C)c(-c3c(O)c(Cl)nn(C)c3=O)c2c1 [Cpd. No. 20, 6-chloro-4-(2,7-dimethyl-1-naphthalenyl)-5-hydroxy-2-methyl-3(2H)-pyridazinone]
Plant response rating, Waterhemp_RES1 ([1]; 16 g ai/ha): 75
Plant response rating, Waterhemp_RES1 ([1]; 31 g ai/ha): 90
Plant response rating, Waterhemp_RES1 ([1]; 62 g ai/ha): 80
Plant response rating, Waterhemp_RES1 ([1]; 125 g ai/ha): 95
Plant response rating, Waterhemp_RES2 ([2]; 16 g ai/ha): 15
Plant response rating, Waterhemp_RES2 ([2]; 31 g ai/ha): 40
Plant response rating, Waterhemp_RES2 ([2]; 62 g ai/ha): 60
Plant response rating, Waterhemp_RES2 ([2]; 125 g ai/ha): 70
Plant response rating (0 to 100 scale) ZEAMD ([3]; Cpd. No. 20 alone 62 g a.i./ha): 0
Plant response rating (0 to 100 scale) ZEAMD [3, 9]: 17
Plant response rating (0 to 100 scale) ZEAMD [3, 10]: 28
Plant response rating (0 to 100 scale) ZEAMD [3, 11]: 33
Plant response rating (0 to 100 scale) SETFA ([4]; Cpd. No. 20 alone 62 g a.i./ha): 96
Plant response rating (0 to 100 scale) SETFA [4, 9]: 99
Plant response rating (0 to 100 scale) SETFA [4, 10]: 100
Plant response rating (0 to 100 scale) SETFA [4, 11]: 100
Plant response rating (0 to 100 scale) ORYSS ([5]; Cpd. No. 20 alone 62 g a.i./ha): 20
Plant response rating (0 to 100 scale) ORYSS [5, 9]: 35
Plant response rating (0 to 100 scale) ORYSS [5, 10]: 40
Plant response rating (0 to 100 scale) ORYSS [5, 11]: 40
Plant response rating (0 to 100 scale) GLXMA ([6]; Cpd. No. 20 alone 62 g a.i./ha): 15
Plant response rating (0 to 100 scale) GLXMA [6, 9]: 22
Plant response rating (0 to 100 scale) GLXMA [6, 10]: 30
Plant response rating (0 to 100 scale) GLXMA [6, 11]: 35
Plant response rating (0 to 100 scale) HORVW ([7]; Cpd. No. 20 alone 62 g a.i./ha): 0
Plant response rating (0 to 100 scale) HORVW [7, 9]: 10
Plant response rating (0 to 100 scale) HORVW [7, 10]: 15
Plant response rating (0 to 100 scale) HORVW [7, 11]: 20
Plant response rating (0 to 100 scale) TRZAW ([8]; Cpd. No. 20 alone 62 g a.i./ha): 0
Plant response rating (0 to 100 scale) TRZAW [8, 9]: 8
Plant response rating (0 to 100 scale) TRZAW [8, 10]: 22
Plant response rating (0 to 100 scale) TRZAW [8, 11]: 35
